Data: PubChem BioAssay AID624394 (The Scripps Research Institute Molecular Screening Center, 2012)

Target: Photoreceptor-specific nuclear receptor (Homo sapiens) (UniProt Q9Y5X4)
Assay: concentration-response of NR2E3 activators – cell-based, luminescence, luciferase reporter, dose response (AID 624394)

Photoreceptor-specific nuclear receptor (Homo sapiens), sequence (Q9Y5X4 whole entry, looked up): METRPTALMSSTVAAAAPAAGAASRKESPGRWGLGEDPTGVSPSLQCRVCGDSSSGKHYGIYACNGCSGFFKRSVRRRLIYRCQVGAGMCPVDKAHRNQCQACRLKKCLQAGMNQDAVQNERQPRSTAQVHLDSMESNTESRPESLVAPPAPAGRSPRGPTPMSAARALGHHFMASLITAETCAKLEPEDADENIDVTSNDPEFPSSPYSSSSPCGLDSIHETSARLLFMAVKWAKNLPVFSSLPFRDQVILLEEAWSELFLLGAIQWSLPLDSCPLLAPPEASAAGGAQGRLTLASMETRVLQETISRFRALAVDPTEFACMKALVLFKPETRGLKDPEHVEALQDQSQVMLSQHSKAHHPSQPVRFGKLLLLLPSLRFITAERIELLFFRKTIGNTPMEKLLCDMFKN

CCOP(=O)(CCP(=O)(OCC)OCC)OCC.C[CH2][Sn]([Cl])([Cl])[CH2]C
IC50: 478 nM
